Results from PMC12265714 (bioRxiv, 2025).

Molecular target: T1, ComFB (FB; Bsu FB) (Bacillus subtilis, UniProt P39146)
T1 sequence (P39146 1-98): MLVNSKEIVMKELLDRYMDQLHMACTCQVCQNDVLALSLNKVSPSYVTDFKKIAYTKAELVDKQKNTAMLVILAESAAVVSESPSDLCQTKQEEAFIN
Experiment: isothermal titration calorimetry, one-site model
Format: binding

| SMILES | Kd |
| --- | --- |
| Nc1ncnc2c1ncn2[C@@H]1O[C@@H]2COP(=O)(O)O[C@H]3[C@@H](O)[C@H](n4cnc5c(N)ncnc54)O[C@@H]3COP(=O)(O)O[C@H]2[C@H]1O [c-di-AMP] | 69.1 ± 139 µM |
| Nc1nc2c(ncn2[C@@H]2O[C@@H]3CO[P@](=O)(O)O[C@H]4[C@@H](O)[C@H](n5cnc6c(=O)[nH]c(N)nc65)O[C@@H]4CO[P@](=O)(O)O[C@H]3[C@H]2O)c(=O)[nH]1 [c-di-GMP] | 0.14 ± 0.05 µM |
